According to US7371766B2, “Curcumin analogs with anti-tumor and anti-angiogenic properties” (Emory University, priority 1999, dated 2008):
Like-named read-outs stand apart in the source and are kept apart here.

Legend:
HCT-15 = assay: cells; conditions: Homo sapiens, HCT-15, 48 h
SW-620 = assay: cells; conditions: Homo sapiens, SW-620, 48 h
[1] = test system: Sixty human tumor cell lines; assay: cells; conditions: 48 h
BT-549 = assay: cells; conditions: Homo sapiens, BT-549, 48 h
MDA-MB-435 = assay: cells; conditions: Homo sapiens, MDA-MB-435, 48 h
OVCAR-8 = assay: cells; conditions: Homo sapiens, OVCAR-8, 48 h
SN12C = assay: cells; conditions: Homo sapiens, 48 h
HCT-116 = assay: cells; conditions: Homo sapiens, HCT-116, 48 h
SF-539 = assay: cells; conditions: Homo sapiens, SF-539, 48 h
EKVX = assay: cells; conditions: Homo sapiens, 48 h
CAKI-1 = assay: cells; conditions: Homo sapiens, CAKI-1, 48 h
RPMI-7951 human melanoma = assay: Neutral Red Assay, cell viability, RPMI-7951; conditions: Homo sapiens
UACC-62 = assay: cells; conditions: Homo sapiens, UACC-62, 48 h
NCI-H460 = assay: cells; conditions: Homo sapiens, NCI-H460, 48 h
MCF-7 = assay: cells; conditions: Homo sapiens, MCF7, 48 h
[2] = test system: Sixty human tumor cell lines; conditions: NCI Anti-Tumor Screen, several cell types
SNB-75 = assay: cells; conditions: Homo sapiens, SNB-75, 48 h
UACC-257 = assay: cells; conditions: Homo sapiens, UACC-257, 48 h
TK-10 = assay: cells; conditions: Homo sapiens, TK-10, 48 h
OVCAR-5 = assay: cells; conditions: Homo sapiens, OVCAR-5, 48 h
MALME-3M = assay: cells; conditions: Homo sapiens, 48 h
T-47D = assay: cells; conditions: Homo sapiens, T47D, 48 h
MDA-N = assay: cells; conditions: Homo sapiens, 48 h
IGROV1 = assay: cells; conditions: Homo sapiens, IGROV-1, 48 h
NCI/ADR-RES = assay: cells; conditions: Homo sapiens, 48 h
DU-145 = assay: cells; conditions: Homo sapiens, DU-145, 48 h
RXF 393 = assay: cells; conditions: Homo sapiens, RXF 393, 48 h
U251 = assay: cells; conditions: Homo sapiens, U-251, 48 h
M14 = assay: cells; conditions: Homo sapiens, M14, 48 h
[3] = read-out: Median Growth Inhibitory Concentration (GI50)
[4] = read-out: Median Lethal Concentration (LC50)
[5] = RPMI-7951, 72 h, read-out: Neutral Red Uptake, %
[6] = RPMI-7951, read-out: Cell Viability

O=C1C(=Cc2ccccc2O)CCCC1=Cc1ccccc1O [EF4, 2,6Bis(2-hydroxybenzylidene)cyclohexanone] was tested, and the GI50 (HCT-15; [3]) was 2.2 µM, the CC50 (HCT-15; [4]) was > 100 µM and the GI50 (SW-620; [3]) was 2.7 µM. For the same compound, the CC50 (SW-620; [4]) was 76.3 µM, the GI50 ([1]; read-out: Median Growth Inhibitory Concentration (GI50), Mean) was 2.4 µM and the CC50 ([1]; read-out: Median Lethal Concentration (LC50), Mean) was 33.9 µM. The GI50 (BT-549; [3]) was 2.4 µM, the CC50 (BT-549; [4]) was 26.1 µM and the GI50 (MDA-MB-435; [3]) was 1.8 µM. For the same compound, the CC50 (MDA-MB-435; [4]) was 8 µM, the GI50 (OVCAR-8; [3]) was 2.9 µM and the CC50 (OVCAR-8; [4]) was > 100 µM. It also gave a GI50 (SN12C; [3]) of 2.3 µM, a CC50 (SN12C; [4]) of 21.5 µM and a GI50 (HCT-116; [3]) of 2.2 µM. It also gave a CC50 (HCT-116; [4]) of 13.2 µM, a GI50 (SF-539; [3]) of 2 µM and a CC50 (SF-539; [4]) of 24.7 µM. The GI50 (EKVX; [3]) was 2.3 µM, the CC50 (EKVX; [4]) was 37.2 µM and the GI50 (CAKI-1; [3]) was 3.1 µM. The CC50 (CAKI-1; [4]) was > 100 µM, the viability at 5 µM (RPMI-7951 human melanoma; [5]) was 98% and the viability at 20 µM (RPMI-7951 human melanoma; [5]) was 4%. The viability at 5 µM (RPMI-7951 human melanoma; [6]) was 102%, the viability at 20 µM (RPMI-7951 human melanoma; [6]) was 38% and the GI50 (UACC-62; [3]) was 1.5 µM. It also gave a CC50 (UACC-62; [4]) of 6.1 µM, a GI50 (NCI-H460; [3]) of 2.3 µM and a CC50 (NCI-H460; [4]) of 40.2 µM. For the same compound, the GI50 (MCF-7; [3]) was 2.7 µM, the CC50 (MCF-7; [4]) was 44.1 µM and the “GI50 compared with CISPLATIN, in words” value [2] was “lower GI50 than the chemotherapeutic agent CISPLATIN for several cell types”. For the same compound, the “LC50 compared with CISPLATIN, in words” value [2] was “lower LC50 than the chemotherapeutic agent CISPLATIN for several cell types”, the GI50 (SNB-75; [3]) was 2 µM and the CC50 (SNB-75; [4]) was 21.5 µM. For the same compound, the GI50 (UACC-257; [3]) was 2.9 µM, the CC50 (UACC-257; [4]) was 57.8 µM and the GI50 (TK-10; [3]) was 3 µM. For the same compound, the CC50 (TK-10; [4]) was 22.6 µM, the GI50 (OVCAR-5; [3]) was 2.6 µM and the CC50 (OVCAR-5; [4]) was 55.9 µM. It also gave a GI50 (MALME-3M; [3]) of 2.3 µM, a CC50 (MALME-3M; [4]) of 24.3 µM and a GI50 (T-47D; [3]) of 1.7 µM. The CC50 (T-47D; [4]) was 50.8 µM, the GI50 (MDA-N; [3]) was 1.6 µM and the CC50 (MDA-N; [4]) was 20.2 µM. For the same compound, the GI50 (IGROV1; [3]) was 2.9 µM, the CC50 (IGROV1; [4]) was 43.9 µM and the GI50 (NCI/ADR-RES; [3]) was 2.7 µM. For the same compound, the CC50 (NCI/ADR-RES; [4]) was > 100 µM, the GI50 (DU-145; [3]) was 1.4 µM and the CC50 (DU-145; [4]) was 7 µM. The GI50 (RXF 393; [3]) was 0.5 µM, the CC50 (RXF 393; [4]) was 30.8 µM and the GI50 (U251; [3]) was 2 µM. The CC50 (U251; [4]) was 18.5 µM, the GI50 (M14; [3]) was 1.9 µM and the CC50 (M14; [4]) was 13.2 µM.
